Measurements taken from patent publication US7348363B2, “Method of controlling zoological and aquatic plant growth” (priority 2000, dated 2008).

Experiments:
[1] = system: T. isochrysis galbana; assay: Phytoplankton assay, Isochrysis galbana; type: cell-based
Protocol: The dinoflagellate prorocentrum minimum was cultured at the Chesapeake Biological Laboratory culture facility from in-house stocks grown up as a 1 liter culture in sterilized 16 ppt salinity filtered water fortified with f/2 nutrient media. The culture was diluted to 5 liters with filtered estuarine water 16 ppt salinity prior to the experiments. The approximate starting cell density was 2×10^6 cells per ml.
(§1) Each 600 ml glass beaker containing 400 ml dinoflagellate culture was allowed to grow under continuous fluorescent light following the exposure treatments. At daily intervals, samples were taken for cell counting and microscopical examination, extraction of chlorophyll pigments with acetone and for direct in-vivo chlorophyll fluorescence determination.
100 ml of each dinoflagellate culture treatment in triplicate were filtered through a 25 mm GFF filter under gentle vacuum. The filters were folded and placed in polypropylene centrifuge tubes and exactly 4 ml of HPLC grade acetone added. The samples were sonicated with a probe (Virsonic 50) for approximately 2 minutes to disrupt cells after which they are allowed to extract at 4° C. overnight in a refrigerator. After centrifuging for 5 minutes, the supernatant was transferred to a quartz fluorometer cell and the fluorescence recorded using a Hitachi F4500 scanning fluorescence detector. Excitation was fixed at 436 nm with a 10 nm slit and the emission is recorded at 660 nm with a 10 nm slit. The photomultiplier is operated at 700 V. Authentic chlorophyll a and b (Sigman Chemicals) were dissolved in HPLC grade acetone to calibrate the spectrofluorometer. Three point calibrations were performed in triplicate on a daily basis and relative fluorescence response converted into units of ug/l.
In-vivo fluorimetry with the Hitachi F4500 involves suspending the algal cells and transferring an aliquot to a disposable polycarbonate cuvette and recording the emission spectra from 600-720 nm with excitation fixed at 436 nm with a 10 nm slit width.
Direct cell counts were made with a compound binocular microscope and a hemacytometer counting triplicate samples in 80 squares.
(§2) End-points for quinone toxicity include cell motility, inhibition of cell division, inhibition of chlorophyll synthesis and chloroplate bleaching.
(§3) Assays for other species of phytoplankton including Chlorella sp. and Isochrysis galbana followed the above outlined procedures.

[2] = system: Neochloris; assay: Phytoplankton toxicity, Neochloris; type: cell-based
Protocol: as §1, §2, §3

[3] = system: Zebra mussel larvae; assay: Zebra mussel larvae bioassay; type: in vivo, Dreissena polymorpha
Protocol: Zebra mussel broodstock were maintained in natural well water with calcium and magnesium adjusted to a hardness level equivalent to approximately 25 mg/l hardness.
(§4) At 20° C., larvae remain in the free-swimming state for 30-40 days prior to settlement. Bioassays using early larval stages of this species are variants on standard oyster embryo bioassays. Assays are conducted at the embryo, trochophore and D-hinge stage.
The assays examined the toxicity of various quinones to the earliest life history stages, namely embryo to trochophore stage (2-17 hours); trochophore stage (2-17 hours); trochophore to D-hinge stage (17-48 hours); and embryo to D-hinge stage (2-48 hours).
Approximately 25 adults from broodstock (held at 10-12° C.) were cleaned of debris and transferred to 1500 ml glass beakers containing approximately 800 ml of culture water. Water temperature was rapidly raised to 30-32° C. by the addition of warm water. Mussels treated this way usually spawn within 30 minutes. If no spawning occurred within this time, a slurry made from ripe gonads homogenized in culture water is added.
A successful spawn yielded >50,000 eggs/female. To check for successful fertilization, zygotes were transferred to a Sedgewick-Rafter cell for counting and examination under a binocular microscope. Fertilized eggs were seen to be actively dividing and reached the 8-cell stage between 2-3 hours following fertilization. A better than 70% fertilization rate is considered indicative of viable experimental material.
Assays were conducted on at least 500 embryos/larvae in each of 4 replicates. A range of 5 test concentrations (in the ppm range) plus controls were used. A density of 10 embryos per ml were used for embryo assays, and for D-hinge larvae 2-larvae/ml were used. The tests were static non-renewal. Any assay lasting 24 hours or longer received food (cultured Neochloris @5×10^4 cells ml-1) at 24 hour intervals.
Following counting and adjustment of densities, embryo assays were started as early as 2 hours following fertilization by inoculating a known number of embryos into the test media. Late stages were held in culture water until inoculation. Survivors were counted using Sedgewick-Rafter cells, with adjustments for control mortality using Abbott's formula. Probit and Dunnett's test are used to obtain the LD50, Lowest Observed Effect Concentration (LOEC) and No Observed Effect Concentration (NOEC) (Toxcalc 5.0).

[4] = system: E. affinis; assay: Copepod assay (Eurytemora affinis); type: in vivo
Protocol: Cultures of Eurytemora affinis were continuously maintained in 15 seawater in a 8/16 hours light/dark regime fed every 48 hours on Isochrysis galbana. Toxicity bioassays are conducted on early instar naupliar larvae (chronic mortality/fecundity assay) or adults (acute LC50 assay).
Larvae were collected as follows. Cultures were filtered with a 200 m Nitex filter to separate the adults from earlier stages. Adults were then allowed to spawn for 48-72 hours in order to produce stage 1-3 naupliar larvae to be used for the assay. Assays were conducted on batches of 10 larvae per treatment (in triplicate). At 20° C., assays were continued for 12 days (shorter at higher temperatures). Endpoints were the percentage of F0 generation (present as adults) and total numbers of F1 generation (present as eggs or naupliar larvae). LC50 assays on adult copepods were conducted for 24 or 48 hours with percentage mortality as the end-point. All assays were conducted at 15 salinity on a 8 hour/16 hour light/dark regime.

[5] = system: Artemia salina; assay: Artemia salina toxicity; type: in vivo
Protocol: (§5) The effectiveness and toxicity levels of the compounds were evaluated using active plant and animal species. The various compounds were added to the water at controlled rates and amounts.

[6] = system: Fish eggs; type: in vivo
[7] = system: Minnow larvae; assay: Fathead minnow acute assay (fish assay); type: in vivo, Pimephales promelas
Protocol: Fathead minnows (Pimephales promelas) from in-house laboratory cultures were used for these tests. Animals were cultured in natural well water with hardness adjusted to >50 ppm (CaCO3) equivalents. Fish were spawned in a 20 gal spawning tank containing PVC tubing as refuges. Newly hatched larvae were transferred to a holding tank at densities of 50-100/l until use. Brine shrimp nauplii (Artemia) were used as food.
The tests were static renewal. The test durations were 48 hours and 96 hours. The temperature was 20° C.±1° C. Light quality was ambient laboratory illumination. Light intensity was 10-20 E/m^2/sec (50-100 ft-c). The photoperiod was 16 hours of light and 8 hours of dark. The test container was 400 ml. Renewal of test solutions occurred at 48 hours. The age of test organisms was 1-14 days, with a 24 hour age range. There were 10 organisms per container. There were 3 replicates per concentration of individual quinones in the ppm range. There are 5 test concentrations plus controls (initial range-finding tests performed on logarithmic series). All tests were conducted within 5 hours of dissolving the test compound. Animals were fed Artemia nauplii prior to the test and 2 hours prior to the 48 hour test solution renewal. […]
The test objectives are to determine LC50, LOEC and NOEC. […] Data are analyzed using Toxcalc 5.0.

[8] = system: Oyster larvae; assay: Oyster larvae toxicity; type: in vivo
Protocol: as §5, §4

[9] = system: Banana snails (Bulimulis alternata); assay: Banana snail bioassay on treated lettuce leaves; type: in vivo; conditions: for Avoidance of treated leaves: lettuce leaves sprayed with 5, 10 and 20 mg/l aqueous solution
Protocol: Banana snails (Bulimulis alternata) were obtained from a commercial supplier and were fed lettuce leaves until the start of the bioassay.
Ten snails were placed in covered 1 liter glass beakers, on approximately 50 cm^2 lettuce leaves which had been sprayed with a fine mist of an aqueous solution of 2,3-dimethoxy-5-methyl-1,4-benzoquinone at three concentrations: 5, 10 and 20 mg/l. The treated leaves were allowed to dry before exposure to the snails. 10 snails were placed on approximately 50 cm^2 of untreated lettuce leaf as a control. Treatments and controls were maintained at approximately 20° C. in the dark.
Others climbed up the walls of the beakers away from the leaves. […] In contrast, the control group of snails consumed more than 10% of the leaf surface area after 24 hours and continued to feed and had consumed about 20% of the leaf after 48 hours.

CC1=CC(=O)c2c(O)cccc2C1=O [compound 1, 2-methyl-5-hydroxy-1,4-napthoquinone]
Toxicity Data: Toxic at (concentration) [1]: Toxic at 50 ppb
Toxicity Data: Toxic at (concentration) [2]: Toxic at 500 ppm
Toxicity Data: Toxic at (concentration) ([3]; Zebra larvae): Toxic at 200 ppb
Toxicity Data: time to toxic effect at 5 ppm [4]: 5 ppm < 10 min
Toxicity Data: Toxic at (concentration) [5]: Toxic at 5 ppm
Toxicity Data: Kills & hatch prevention @ (concentration) [6]: prevention @ 1 ppm
Toxicity Data: Toxic at (concentration) [7]: Toxic at 1 ppm

CC1=CC(=O)c2ccccc2C1=O [compound 2, 2-methyl-1,4-naphthalenedione (Vitamin K3)]
Toxicity Data: Toxic at (concentration) [1]: Toxic at 500 ppb
Toxicity Data: Toxic at (concentration) ([3]; Zebra mussel larvae): Toxic at 500 ppm
Toxicity Data: time to toxic effect at 5 ppm [4]: 5 ppm < 15 min
Toxicity Data: Toxic at (concentration) [5]: Toxic at 5 ppm
Toxicity Data: Kills & hatch prevention @ (concentration) [6]: prevention @ 1 ppm
Toxicity Data: toxic concentration [8]: 1 ppm

CC1(S(=O)(=O)[O-])CC(=O)c2ccccc2C1=O.[Na+] (stereo not shown) [compound 3, 2-methyl-2-sodium metabisulfite-1,4-naphthalenedione]
Toxicity Data: Toxic at (concentration) [1]: Toxic at 500 ppb
Toxicity Data: Toxic at (concentration) ([3]; Zebra mussel larvae): Toxic at 1 ppm
Toxicity Data: time to toxic effect at 5 ppm [4]: 5 ppm < 15 min
Toxicity Data: Toxic at (concentration) [5]: Toxic at 5 ppm
Toxicity Data: Kills & hatch prevention @ (concentration) [6]: prevention @ 1 ppm
Toxicity Data: toxic concentration [8]: 500 ppb

O=C1c2ccccc2Cc2ccccc21 [compound 4, Anthrone]
Toxicity Data: Toxic at (concentration) [1]: Toxic at 2 ppm

O=C1c2ccccc2C(=O)c2c1ccc(O)c2O [compound 5, 1,2-dihydroxyanthraquinone]
Toxicity Data: Toxic at (concentration) [1]: Toxic at 1 ppm
Toxicity Data: Toxic at (concentration) [4]: Toxic at 1 ppm
Toxicity Data: Toxic at (concentration) [5]: Toxic at 5 ppm

Cc1cc(O)c2c(c1)C(=O)c1cccc(O)c1C2=O [compound 6, 3-methyl-1,8-dihydroxyanthraquinone]
Toxicity Data: Toxic at (concentration) [1]: Toxic at 1 ppm
Toxicity Data: Toxic at (concentration) ([3]; Zebra mussel larvae): Toxic at 1 ppm

O=C(O)c1ccc2c(c1)C(=O)c1ccccc1C2=O [compound 7, anthraquinone-2-carboxylic acid]
Toxicity Data: Toxic at (concentration) [1]: Toxic at 1 ppm
Toxicity Data: time to toxic effect at 5 ppm [4]: 5 ppm < 5 hours

O=C1c2ccccc2C(=O)c2c(Cl)cccc21 [compound 8, 1-chloroanthraquinone]
Toxicity Data: Toxic at (concentration) [1]: Toxic at 500 ppb
Toxicity Data: Toxic at (concentration) [2]: Toxic at 500 ppb
Toxicity Data: time to toxic effect at 5 ppm [4]: 5 ppm < 5 hours

Cc1ccc2c(c1)C(=O)c1ccccc1C2=O [compound 9, 2-methyl-anthraquinone]
Toxicity Data: Toxic at (concentration) [1]: Toxic at 500 ppb
Toxicity Data: Toxic at (concentration) [2]: Toxic 1 ppm
Toxicity Data: Toxic at (concentration) ([3]; Zebra mussel larvae): Toxic at 200 ppm
Toxicity Data: time to toxic effect at 5 ppm [4]: 5 ppm < 45 min
Toxicity Data: Toxic at (concentration) [5]: Toxic at 5 ppm

O=C1C=CC(=O)c2ccccc21 [compound 10, 1,4-naphthalenedione]
Toxicity Data: Toxic at (concentration) [1]: Toxic at 1 ppm
Toxicity Data: time to toxic effect at 5 ppm [4]: 5 ppm < 10 min
Toxicity Data: toxic concentration [8]: Toxic at 5 ppm

O=C1c2ccccc2C(=O)c2ccccc21 [compound 11, anthraquinone]
Toxicity Data: time to toxic effect at 5 ppm [4]: 5 ppm < 4 hours

O=C1C=CC(=O)C=C1 [compound 12, 1,4-benzoquinone]
Toxicity Data: Toxic at (concentration) [1]: Toxic at 500 ppb
Toxicity Data: Control hatch at (concentration) [6]: at 1 ppm

CC1=CC(=O)C=CC1=O [compound 13, methyl-1,4-benzoquinone (toluquinone)]
Toxicity Data: Toxic at (concentration) [1]: Toxic at 500 ppb

COC1=C(OC)C(=O)C(C)=CC1=O [compound 14, 2,3-methoxy-5-methyl-1,4-benzoquinone]
Toxicity Data: Toxic at (concentration) [1]: Toxic at 5 ppm
Avoidance of treated leaves ([9]; after 48 hours): avoidance behavior was again observed
Avoidance of treated leaves ([9]; all treatments, 24 hours): significant avoidance relative to control
Feeding activity ([9]; several snails of the treatment group, leaves completely intact): no feeding activity at all
